Patent US20250051347A1, “BIFUNCTIONAL CHIMERIC HETEROCYCLIC COMPOUND AND USE THEREOF AS ANDROGEN RECEPTOR DEGRADER” (Hinova Pharmaceuticals, Inc., priority 2021, published 2025)
Where two headings read alike, the source gives them in different places.

Key:
[1] = target: T1, androgen receptor (AR) splicing variant AR-v7 (Homo sapiens, UniProt P10275); assay: Degradation activity on androgen receptor splicing variant AR-v7 in 22RV1 cells (ELISA); type: cell-based; conditions: AR-v7 degradation in 22RV1 cells, 48 h, class symbols
T1 construct: The degradation activity of compounds on AR-v7 in 22RV1 cells; host or cells: 22RV1 cells
T1 sequence (P10275 1-644 isoform P10275-3): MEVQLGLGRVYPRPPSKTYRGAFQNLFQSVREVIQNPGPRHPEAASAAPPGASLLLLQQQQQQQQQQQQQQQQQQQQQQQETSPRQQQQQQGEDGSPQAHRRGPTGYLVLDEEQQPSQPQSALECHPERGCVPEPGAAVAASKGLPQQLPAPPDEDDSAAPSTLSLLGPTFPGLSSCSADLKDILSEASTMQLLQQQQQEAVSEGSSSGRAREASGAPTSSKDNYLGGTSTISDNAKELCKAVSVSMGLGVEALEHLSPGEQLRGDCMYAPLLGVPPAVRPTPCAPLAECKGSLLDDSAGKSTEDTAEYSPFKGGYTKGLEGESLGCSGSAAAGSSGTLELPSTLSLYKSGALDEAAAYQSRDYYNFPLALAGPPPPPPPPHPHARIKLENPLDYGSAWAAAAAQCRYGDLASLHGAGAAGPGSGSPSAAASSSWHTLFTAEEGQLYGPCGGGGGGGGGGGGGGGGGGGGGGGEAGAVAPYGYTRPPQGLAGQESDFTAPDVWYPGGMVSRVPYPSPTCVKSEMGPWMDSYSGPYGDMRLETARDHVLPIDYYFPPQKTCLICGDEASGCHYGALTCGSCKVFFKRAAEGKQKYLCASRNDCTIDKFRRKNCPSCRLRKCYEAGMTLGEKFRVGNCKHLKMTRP

[2] = test system: 22RV1 cells
[3] = Homo sapiens, 22Rv1, 144 h, read-out: 22RV1 IC50 (nM), 22RV1 cells, 6 days culture, CCK-8, OD 450 nm

| Structure (SMILES) | DC50 [1] [nM] | IC50 ([2]; read-out: 22RV1 IC50, 22RV1 cells, 6 days culture, CCK-8, OD 450 nm) [nM] | IC50 [2, 3] [nM] |
| --- | --- | --- | --- |
| Cc1nc(-c2ncc(Oc3ccc(C(C)(C)c4ccc(OC5CC(Nc6ccc7c(c6)C(=O)N(C6CCC(=O)NC6=O)C7=O)C5)cn4)cc3)cn2)no1 (stereo not drawn) [Example 221, 2-(2,6-dioxopiperidin-3-yl)-5-((1r,3r)-3-((6-(2-(4-((2-(5-methyl-1,2,4-oxadiazol-3-yl)pyrimidin-5-yl)oxy)phenyl)propan-2-yl)pyridin-3-yl)oxy)cyclobutyl)amino)isoindolin-1,3-dione] | < 10 | 6 |  |
| CC(O)c1ccc(Oc2ccc(C(C)(C)c3ccc(O[C@H]4C[C@@H](Nc5ccc6c(c5)C(=O)N(C5CCC(=O)NC5=O)C6=O)C4)cc3)cc2)nn1 (stereo partly drawn) [Example 522] | 11 to 100 |  | 7 |
| CC(C)(c1ccc(OCc2ccnc(-c3nnco3)n2)cc1)c1ccc(O[C@H]2C[C@H](Nc3ccc4c(c3)C(=O)N(C3CCC(=O)NC3=O)C4=O)C2)cc1 (stereo partly drawn) [Example 468, 5-(((1r,3r)-3-(4-(2-(4-((2-(1,3,4-oxadiazol-2-yl)pyrimidin-4-yl)methoxy)phenyl)propan-2-yl)phenoxy)cyclobutyl)amino)-2-(2,6-dioxopiperidin-3-yl)isoindolin-1,3-dione] | < 10 |  | 5 |
| CC(C)(c1ccc(Oc2cccnc2)cc1)c1ccc(O[C@H]2C[C@H](Nc3ccc4c(c3)C(=O)N(C3CCC(=O)NC3=O)C4=O)C2)cc1 (stereo partly drawn) [Example 547] | < 10 |  | 9 |
| CC(C)(c1ccc(OCc2ccnc(N3CCNCC3)n2)cc1)c1ccc(OC2CC(Nc3ccc4c(c3)C(=O)N(C3CCC(=O)NC3=O)C4=O)C2)cc1 (stereo not drawn) [Example 451, 2-(2,6-dioxopiperidin-3-yl)-5-((3-(4-(2-(4-((2-(piperazin-1-yl)pyrimidin-4-yl)methoxy)phenyl)propan-2-yl)phenoxy)cyclobutyl)amino)isoindolin-1,3-dione] | < 10 |  | 11 |
| CC(c1nccc(COc2ccc(C(C)(C)c3ccc(O[C@H]4C[C@H](Nc5ccc6c(c5)C(=O)N(C5CCC(=O)NC5=O)C6=O)C4)cc3)cc2)n1)N1CCC1 (stereo partly drawn) [Example 249] | < 10 |  | 6 |
| Cc1nnc(-c2nccc(COc3ccc(C(C)(C)c4ccc(O[C@H]5C[C@@H](Nc6ccc7c(c6)C(=O)N(C6CCC(=O)NC6=O)C7=O)C5)cc4)cc3)n2)o1 (stereo partly drawn) [Example 465] | < 10 |  | 3 |
| CC(C)(c1ccc(Oc2nccc(N3CC4(COC4)C3)n2)cc1)c1ccc(O[C@H]2C[C@H](Nc3ccc4c(c3)C(=O)N(C3CCC(=O)NC3=O)C4=O)C2)cc1 (stereo partly drawn) [Example 156] | < 10 |  | 10 |
| CC(C)(c1ccc(Oc2ncc(N3CC4(COC4)C3)cn2)cc1)c1ccc(O[C@H]2C[C@H](Nc3ccc4c(c3)C(=O)N(C3CCC(=O)NC3=O)C4=O)C2)cc1 (stereo partly drawn) [Example 311] | < 10 |  | 18 |
| Cc1nc(-c2ncc(Oc3ccc(C4(c5ccc(O[C@H]6C[C@H](Nc7ccc8c(c7)C(=O)N(C7CCC(=O)NC7=O)C8=O)C6)cc5)CCOCC4)cc3)cn2)no1 (stereo partly drawn) [Example 382, 2-(2,6-dioxopiperidin-3-yl)-5-(((1r,3r)-3-(4-(4-(4-((2-(5-methyl-1,2,4-oxadiazol-3-yl)pyrimidin-5-yl)oxy)phenyl)tetrohydro-2H-pyran-4-yl)phenoxy)cyclobutyl)amino)isoindolin-1,3-dione] | < 10 |  | < 1 |
| CC(=O)c1ncc(Oc2ccc(C3(c4ccc(O[C@H]5C[C@H](Nc6ccc7c(c6)C(=O)N(C6CCC(=O)NC6=O)C7=O)C5)cc4)CCCCC3)cc2)cn1 (stereo partly drawn) [Example 529] | < 10 |  | 2 |
| CC(C)(c1ccc(NC2CC(Nc3ccc4c(c3)C(=O)N(C3CCC(=O)NC3=O)C4=O)C2)cc1)c1ccc(OCc2ccnc(N3CC4(COC4)C3)n2)cc1 (stereo not drawn) [Example 494, 5-((3-((4-(2-(4-((2-(2-oxa-6-azaspiro[3.3]heptan-6-yl)pyrimidin-4-yl)methoxy)phenyl)propan-2-yl)phenyl)amino)cyclobutyl)amino)-2-(2,6-dioxopiperidin-3-yl)isoindolin-1,3-dione] | < 10 |  | 7 |
